Test results reported in patent US9221761B2, “Method for inhibition of deubiquitinating activity” (Vivolux AB, priority 2011, dated 2015).

How the values were obtained:
[1] = test system: MelJuSo Ub-YFP reporter cell line; assay: Proteasome inhibition in reporter cell line, YFP accumulation in IncuCyte-FLR; type: cell-based; details: YFP accumulation measured for 48 hours; for MeJuSo-UB, lowest effective conc.: Table 2
Excerpt: Cell culture. MCF7 cells are maintained in MEM/10% fetal calf serum. HCT-116 p53+/+, p53−/−, Bcl-2+/+, PUMA−/− and BAX−/− cells are maintained in McCoy's 5A modified medium/10% fetal calf serum. The HCT-116 p53+/+, p53−/−, PUMA−/− and BAX−/− are generated as described (25). The HCT-116 Bcl-2+/+ cell line was generated by transfecting parental HCT-116 p53+/+ cells with pCEP4 Bcl-2 (Addgene plasmid 16461) (26) and isolating high expression clones. FaDu and LLC3 cells are maintained in DMEM high glucose medium supplemented with 10% fetal calf serum, Na pyruvate, Hepes and non-essential amino acids. 4T1.12B carcinoma cells are maintained in RPMI medium supplemented with 10% fetal calf serum. The proteasome reporter cell line MelJuSo Ub-YFP was generated as described (12). Cells were maintained in Dulbecco's Modified Eagle's Medium/10% fetal calf serum. […] The retinal epithelial cell line was generated as described (28). All cells are maintained at 37° C. in 5% CO2.
The compound of the invention induces proteasome inhibition. The reporter cell line MelJuSo Ub-YFP, which is engineered to accumulate yellow fluorescent protein (YFP) upon proteasome inhibition (12), was used for compound evaluation. The accumulation of YFP was measured for 48 hours in an IncuCyte-FLR system (Essen Bioscience, Essen, UK), which is an automated fluorescence microscope. Numbers of positive cells per field were used as a measure of proteasome inhibition.

HCT116 = assay: FMCA (Fluorometric Microculture Cytotoxicity Assay) cytotoxicity; type: cell-based; details: 72 hours of continuous compound exposure
Procedure: FIGS. 1a to 1o are diagrams illustrating induction of dose-dependent cytotoxicity after 72 hours of continuous compound exposure to the reporter cell line HCT-116 by embodiments of the compound of the invention, as measured FMCA (Fluorometric Microculture Cytotoxicity Assay), as well as absence of such induction by structurally related compounds not comprised by the invention. Treated cells were compared to untreated controls (survival index);
Determination of cell apoptosis and viability. For determination of apoptosis parental HCT-116 p53+/+ cells are treated with the increasing doses of the compound of the invention for 24 h. […] HCT-116 cells are seeded in 96-well microtiter plates at 10,000 cells per well and incubated overnight. Cells are treated with indicated drug for 24 h. At the end of the incubation period, NP40 is added to the tissue culture medium to 0.1% and 25 μl of the content of each well was assayed using the M30-Apoptosense® ELISA as previously described (31). Cell viability is determined by measuring acid phosphatase activity or using the FMCA method (32). For the acid phosphatase activity cells are seeded at 5000 cells per well in 96-well culture plates and incubated for 12 h at 37° C. Compounds are added to the cells in growth media and incubated for 72 h at 37° C. Cells are washed with 200 μl warm PBS. 100 μl of para-nitrophenyl phosphate (pNPP, 2 mg/ml) in Na acetate buffer pH 5 (NaAc 0.1 M, 0.1% Triton-X-100) is added per well. Cells are incubated for 2 h after which reaction was stopped by addition of 1N NaOH. Absorbance is measured at 405 nm. The dose-dependent cytotoxicity of a number of embodiments of the compound of the invention is illustrated in FIGS. 1a-1o.
For the FMCA assay cells are seeded in the drug-prepared 384-well plates using the pipetting robot Precision 2000 (Bio-Tek Instruments Inc., Winooski, Vt.). The plates are incubated for 72 h and then transferred to an integrated HTS SAIGAN Core System consisting of an ORCA robot (Beckman Coulter) with CO2 incubator (Cytomat 2C, Kendro, Sollentuna, Sweden), dispenser module (Multidrop 384, Titertek, Huntsville, Ala.), washer module (ELx 405, Bio-Tek Instruments Inc), delidding station, plate hotels, barcode reader (Beckman Coulter), liquid handler (Biomek 2000, Beckman Coulter) and a multipurpose reader (FLUOstar Optima, BMG Labtech GmbH, Offenburg, Germany) for automated FMCA. Survival index (SI) is defined as the fluorescence of test wells in percentage of controls with blank values subtracted.
FIGS. 3b, 3d, 3f are diagrams illustrating the cytotoxicity of compounds of the invention nos. 1546, 1547, and 1570 with a 7-membered ring moiety in comparison to structurally corresponding compounds not comprised by the invention with a 6-membered ring moiety. Their induction of dose-dependent cytotoxicity was determined after 72 hours of continuous compound exposure to the reporter cell line HCT-116. Treated cells were compared with untreated controls. Cytotoxicity is visualized as survival index (SI) over the range of about 90% SI to about 0% SI in dependence on compound concentration.

| Molecule | MeJuSo-UB, IncuCyte lowest effective conc. ([1]; Table 1) [µM] | IC50 (HCT116; Table 1) [nM] | MeJuSo-UB, lowest effective conc. [1] [µM] | IC50 (HCT116; Table 2) [nM] | further results |
| --- | --- | --- | --- | --- | --- |
| O=C1/C(=C/c2ccc(Cl)cc2)CCNC/C1=C\c1ccc([N+](=O)[O-])cc1 [Compound 1583, (3E,5E)-5-[(4-chlorophenyl)methylidene]-3-[(4-nitrophenyl)methylidene]azepan-4-one] | 2 | – | – | – | IC50 (HCT116; Homo sapiens, HCT-116, Table 1): 3300 nM |
| O=C1C(=Cc2ccc(C(F)(F)F)c(F)c2)CCNCC1=Cc1ccc(C(F)(F)F)c(F)c1 [Compound 1626] | 8 | 800 | – | – | – |
| CC(=O)OCCC(=O)N1CCC(=Cc2ccc(Cl)c(F)c2)C(=O)C(=Cc2ccc(Cl)c(F)c2)C1 [Compound 1660] | – | – | 2 | 2400 | – |
| CN1CCC(=Cc2ccc(F)cc2)C(=O)C(=Cc2ccc([N+](=O)[O-])cc2)C1 [Compound 1587] | 1 | 3000 | – | – | – |
| CN1CCC(=Cc2ccc([N+](=O)[O-])cc2)C(=O)C(=Cc2ccc(Cl)cc2)C1 [Compound 1594] | 1 | 2600 | – | – | – |
| CN1CCC(=Cc2ccc([N+](=O)[O-])cc2)C(=O)C(=Cc2ccc(F)cc2)C1 [Compound 1593] | 1 | 2900 | – | – | – |
| O=C1C(=Cc2ccc(Cl)cc2)CCN(C(=O)c2cccnc2)CC1=Cc1ccc(Cl)cc1 [Compound 1637] | – | – | 2 | 2100 | – |
| CC(=O)OCC(=O)N1CC/C(=C\c2ccc(Cl)c(C(F)(F)F)c2)C(=O)/C(=C/c2ccc(Cl)c(C(F)(F)F)c2)C1 [Compound 1656] | – | – | 0.5 | 700 | – |
| O=C1C(=Cc2cc(F)c(F)c(F)c2)CCN(C(=O)Cc2cccnc2)CC1=Cc1cc(F)c(F)c(F)c1 [Compound 1650] | – | – | 1 | 1900 | – |
| CN1CCC(=Cc2ccc(F)cc2)C(=O)C(=Cc2ccc(Cl)cc2)C1 [Compound 1595] | 1 | 2300 | – | – | – |
| CN1CCC(=Cc2ccc(C#N)cc2)C(=O)C(=Cc2ccc(C#N)cc2)C1 [Compound 1621] | 2 | 4500 | – | – | – |
| CC(=O)N1CCC(=Cc2ccc(F)c(F)c2)C(=O)C(=Cc2ccc(F)c(F)c2)C1 [Compound 1628] | – | – | 1 | 2300 | – |
| O=C1C(=Cc2ccc(F)c(C(F)(F)F)c2)CCNCC1=Cc1ccc(F)c(C(F)(F)F)c1 [Compound 1622] | 0.5 | 800 | – | – | – |
| CN1CCC(=Cc2cccc([N+](=O)[O-])c2)C(=O)C(=Cc2cccc([N+](=O)[O-])c2)C1 [Compound 1566] | 0.5 | 2300 | – | – | – |
| COc1ccc(C=C2CNCCC(=Cc3ccc(F)cc3)C2=O)cc1 [Compound 1576] | 8 | 1600 | – | – | – |
| O=C1C(=Cc2ccc(Cl)cc2)CCNCC1=Cc1ccc(F)cc1 [Compound 1586] | 0.5 | 1100 | – | – | – |
| COc1ccc(/C=C2\CNCC/C(=C\c3ccc([N+](=O)[O-])cc3)C2=O)cc1 [Compound 1575, (3E,5E)-3-[(4-methoxyphenyl)methylidene]-5-[(4-nitrophenyl)methylidene]azepan-4-one] | 1 | – | – | – | IC50 (HCT116; Homo sapiens, HCT-116, Table 1): 2100 nM |

| Molecule | MeJuSo-UB, IncuCyte lowest effective conc. ([1]; Table 1) [µM] | IC50 (HCT116; Table 1) [nM] | MeJuSo-UB, lowest effective conc. [1] [µM] | IC50 (HCT116; Table 2) [nM] | further results |
| --- | --- | --- | --- | --- | --- |
| CC(=O)N1CCC(=Cc2cc(F)c(F)c(F)c2)C(=O)C(=Cc2cc(F)c(F)c(F)c2)C1 [Compound 1629] | – | – | 1 | 600 | – |
| O=C1C(=Cc2ccc(Cl)cc2)CCNCC1=Cc1ccc([N+](=O)[O-])cc1 [Compound 1584] | 2 | 1800 | – | – | – |
| (3E,5E)-1-acetyl-5-[(4-fluorophenyl)methylidene]-3-[(4-ethoxyphenyl)methylidene]azepan-4-one [Compound 1579] | – | – | 8 | 5900 | – |
| O=C1C(=Cc2ccc(Cl)cc2)CCNCC1=Cc1ccc([N+](=O)[O-])cc1 [Compound 1592] | 4 | 12000 | – | – | – |
| CN1CCC(=Cc2ccc(Cl)c(C(F)(F)F)c2)C(=O)C(=Cc2ccc(Cl)c(C(F)(F)F)c2)C1 [Compound 1615] | 0.5 | 900 | – | – | – |
| CCOC(=O)CCC(=O)N1CC/C(=C\c2ccc([N+](=O)[O-])cc2)C(=O)/C(=C/c2ccc([N+](=O)[O-])cc2)C1.O=C(O)C(F)(F)F [Compound 1507, (3E,5E)-1-(4-ethoxy-4-oxobutanoyl)-3,5-bis[(4-nitrophenyl)methylidene]-4-oxoazepan-1-ium trifluoroacetate] | – | – | 8 | – | IC50 (HCT116; Homo sapiens, HCT-116, Table 2): 4400 nM |
| CN1CCC(=Cc2ccc(Cl)cc2)C(=O)C(=Cc2ccc(F)cc2)C1 [Compound 1589] | 1 | 2500 | – | – | – |
| C=CC(=O)N1CCC(=Cc2ccc([N+](=O)[O-])cc2)C(=O)C(=Cc2ccc(OC)cc2)C1 [Compound 1580] | – | – | 8 | 1500 | – |
| CC(=O)OCCC(=O)N1CCC(=Cc2cc(F)c(F)c(F)c2)C(=O)C(=Cc2cc(F)c(F)c(F)c2)C1 [Compound 1664] | – | – | 4 | 2800 | – |
| COc1ccc(C=C2CN(C)CCC(=Cc3ccc([N+](=O)[O-])cc3)C2=O)cc1 [Compound 1588] | 1 | 3100 | – | – | – |
| CN1CCC(=Cc2ccc(F)c(Cl)c2)C(=O)C(=Cc2ccc(F)c(Cl)c2)C1 [Compound 1608] | 1 | 1800 | – | – | – |
| O=C1C(=Cc2ccc([N+](=O)[O-])cc2)CCNCC1=Cc1ccc([N+](=O)[O-])cc1 [Compound 1613] | 32 | 25000 | – | – | – |
| CN1CCC(=Cc2cccc([N+](=O)[O-])c2)C(=O)C(=Cc2cccc([N+](=O)[O-])c2)C1 [Compound 1620] | – | > 32000 | – | – | MeJuSo-UB, IncuCyte lowest effective conc. (μM) ([1]; Table 1): no effect |
| O=C1C(=Cc2ccc([N+](=O)[O-])cc2)CCNCC1=Cc1ccc(Cl)cc1 [Compound 1591] | 0.5 | 900 | – | – | – |
| C=CC(=O)N1CCC(=Cc2cccc([N+](=O)[O-])c2)C(=O)C(=Cc2cccc([N+](=O)[O-])c2)C1 [Compound 1572] | – | – | 0.5 | 2500 | – |
| CC(=O)OCC(=O)N1CC/C(=C\c2ccc(Cl)c(F)c2)C(=O)/C(=C/c2ccc(Cl)c(F)c2)C1 [Compound 1645] | – | – | 2 | 2500 | – |
| CN1CCC(=Cc2cc(F)cc(C(F)(F)F)c2)C(=O)C(=Cc2cc(F)cc(C(F)(F)F)c2)C1 [Compound 1612] | 0.25 | 700 | – | – | – |
